In patent US11925643B2, “Toll-like receptor 4 (TLR4) inhibitors and use thereof” (MOR RESEARCH APPLICATIONS LTD., priority 2018, dated 2024):
Blank lines part the entries; values can stand above or below the compound they belong to. Non-standard residues stand in square brackets, D forms with d. Residues, ends and D or L forms follow the SMILES beside them. 1Nal = N[C@@H](Cc1cccc2ccccc12)C(=O)O

How the values were obtained:
[1] = system: TLR4 mRNA; experiment: TLR4 mRNA level by RT-qPCR in hypoxic cardiomyocytes; type: cell-based; conditions: hypoxic conditions
Description: (§1) Real-time RT-PCR experiments were performed in duplicates on an ABI 7900 instrument (Applied Biosystems™) using Taqman™ Master Mix (Applied Biosystems™). The average threshold cycles (Ct) of the duplicates were used to calculate the relative expression levels of the following genes: TLR4 (Applied Biosystems™ assay primer ID: Mm00569848_m1 Tlr4), TLR2 (assay primer ID: Mm01769726_m1 Tlr2), TNF-α (assay primer ID: Mm00443260_g1 Tnf) and IL-1β (assay primer ID: Mm00434228_m1 II1b) in vitro and in vivo following hypoxia or ischemia, respectively. The reference gene was TBP and the primer used was derived from mouse TATA-box binding protein (Applied Biosystems™ assay primer ID: Mm00446973_m1 Tbp). Amounts of TLR2, TLR4, TNF-α and IL-1β mRNAs in each sample were calculated relative to TBP mRNA, based on the corresponding Cts, as Relative Quantity (RQ) values, and normalized taking as 1 a randomly selected sample of the control group (TBP mRNA). Calculation were performed using the Applied Biosystems Analysis™ software (StepOnePlus V2.2.2). All mRNA scores are presented in arbitrary units.
Next, peptidomimetics of SEQ ID NOs:1 and 2 were tested for their ability to affect the expression of TLR4. The level of TLR4 mRNA was measured by real-time reverse transcriptase polymerase chain reaction (RT-qPCR) method as described in Materials and Methods. The possible effect of both compounds on expression levels of TLR2 mRNA was used as a negative control.

[2] = system: TLR2 mRNA; experiment: TLR2 mRNA level by RT-qPCR in hypoxic cardiomyocytes (negative control); type: cell-based; conditions: hypoxic conditions
Description: as §1
Next, peptidomimetics of SEQ ID NOs:1 and 2 were tested for their ability to affect the expression of TLR4. The level of TLR4 mRNA was measured by real-time reverse transcriptase polymerase chain reaction (RT-qPCR) method as described in Materials and Methods. […]

[3] = molecular target: T1, TLR4 (Homo sapiens, UniProt O00206); experiment: FACS analysis of TLR4 expressed by macrophages exposed to LPS; type: cell-based; conditions: 10 μM
T1 construct: FACS analysis to test the expression of TLR4 protein by macrophages under LPS treatment; endogenous in cells; host or cells: human peripheral-blood monocytes differentiated into macrophages with M-CSF
Description: Flow cytometry is an analytical cell-biology technique that utilizes light to count and profile cells in a heterogenous fluid mixture. Flow cytometry analysis was used to evaluate binding of antibodies to TLR4 presenting cells. In this assay, an anti-TLR4 antibody was added to a monocytes suspension and cells which bound the antibody were visualized by a fluorescently labeled secondary antibody that bound to the anti-TLR4 antibody (Ab). Accordingly, samples were first “labeled” with the anti-TLR4 antibody, then incubated with Fluor® 488 conjugated to a secondary Ab for TLR4 (CD284) positive cells visualization.
In order to confirm the specificity of binding, and further in order to correct for non-specific or background staining, isotypes control mouse IgGs were added to cell suspensions at the same concentration as the anti-TLR4 Abs. To deduct the non-specific or background staining from the positive staining due to direct Ab binding to the antigen, the level of background staining was assessed by the use of the same fluorochrome as that used for staining the anti-TLR4 Ab.
Peripheral blood (30 ml) was obtained for the isolation of monocytes. Monocytes were purified by density gradient centrifugation as described above, and/or by adherence to plastic in RPMI 1640 medium supplemented with 10% fetal bovine serum (FBS) and antibiotics. Peripheral blood mononuclear cells (PBMCs) (10^6 cells/ml) were first seeded into 24-well plates (0.5 ml per well), after 2 hours, non-adherent cells were removed by several washes with warm PBS.
Monocytes freshly isolated either by density gradient centrifugation by adherence differentiated into macrophages in complete RPMI 1640 medium supplemented with human recombinant macrophage colony stimulating factor (100 ng/ml) for 6 days. To confirm macrophage cell lineage, direct immunostaining was performed with an antibody directed against CD11b/mac1 (Biolegend® Inc., San Diego, Calif., USA). Eighty percent (80%) of positive staining was observed by flow cytometry analysis. The proportion of TLR4 in this separated cell fraction was examined by FACS analysis using, as isotype control, mouse IgG2a IsoControl (eBioscience™ #53-4724-80), and mouse anti-human CD284 Alexa Fluor® 488 Clone FITA125 secondary Ab (Isotype IgG2a. eBioscience™ #53-9917-41), which recognizes the human TLR4 (also known as CD284) cell surface antigen. Cells were analyzed in a BC Gallios Flow Cytometer (Beckman Coulter, Indianapolis Ind., USA) and were initially gated on the basis of forward and side scatter characteristics. Kaluza Software was used to analyze the results. Results are expressed as mean fluorescence intensity (MFI) and also as normalized to control. […]

[4] = system: primary cardiomyocytes; experiment: CK and LDH release by primary cardiomyocytes under hypoxia (MI like); type: cell-based, Rat; conditions: 10 μM, FIGS. 2A, 2B
Description: (§2) Rat hearts (1-2 days old) were removed under sterile conditions and washed three times in phosphate-buffered saline (PBS) to remove excess blood cells. The hearts were minced and then gently agitated in RBD (a solution of proteolytic enzymes (Biological Institute, Ness-Ziona, Israel) prepared from fig tree extract, and diluted 1:100 in Ca^2+- and Mg^2+-free PBS) for a few cycles of 10 min each. Dulbecco's modified Eagle's medium (Biological Industries, Kibbutz Beit Haemek, Israel) containing 10% horse serum was added to supernatant suspensions containing the dissociated cells. The mixture was centrifuged at 1400 rpm for 4 min. The supernatant phase was discarded, and the cells were re-suspended. The cell suspension was diluted to 1.0×10^6 cells/ml, unless stated otherwise, and 1.5 ml of the suspension was placed in 35-mm plastic culture dishes collagen- or gelatin-coated, or on coated cover glasses. The cultures were incubated in a humidified atmosphere of 5% CO2 and 95% air at 37° C.
Using a vacuum pump, the oxygen rich air was evacuated from an incubator containing plates with cell cultures, and a 100% Argon atmosphere was let in, while maintaining a temperature of 37° C. The cell cultures were washed with PBS twice to remove glucose from the medium. Hypoxic treated cells were cultures in PBS without glucose. These cells lasted for 180 minutes.
(§3) Primary cardiomyocytes which were obtained by method described above, were treated with exemplary decoy peptides described herein. After 30 minutes of incubation, sepsis like (LPS treatment for 6 hours), or myocardial infarction (MI) like (hypoxia for 3 hours) conditions were imposed to measure the release of CK and LDH to the medium and determine the potential cardioprotective effect of the tested decoy peptides. Cytotoxicity and level of cell damage were assessed by spectrophotometric measurement of lactate dehydrogenase (LDH) and creatine kinase (CK) activities (at 30° C.). Results are presented as CK and LDH release in arbitrary units (a.u.)
(§4) Activity of LDH and CK was determined in the cell-culture medium (25 μl) transferred into 96-well plates, using commercial L-LDH/CK kits (such as those manufactured, e.g., by Sigma-Aldrich, BioVision™ or Thermo Fisher Scientific®).
(§5) Primary cardiomyocytes were treated with peptides and peptidomimetics of SEQ ID NOs:1-7 provided at concentrations ranging from 1 μM to 20 μM. Following 30 minutes of incubation, sepsis like (LPS treatment for 6 hours) or MI like (hypoxia for 3 hours) conditions were induced to determine the potential cardioprotective effect of the tested compounds. Creatine kinase (CK) and lactate dehydrogenase (LDH) activity were assayed to determine the level of cellular damage and cell protection effect. The experimental procedure is described in Materials and Methods above. Results are presented as CK and LDH release in arbitrary units (a.u.).

[5] = system: IκB; experiment: IκB protein level by Western blot in hypoxic cardiomyocytes; type: cell-based; conditions: normalized to β-actin
Description: Frozen tissue/cell cultures of liver or heart were pulverized under liquid nitrogen and placed in a homogenization buffer ([…] phosphate buffer, […] sucrose, […] EDTA, […] phenylmethylsulfonyl fluoride (PMSF), and 0.1% vol/vol tergitol, pH 7.5). Myocytes from cell cultures were homogenized in lysis buffer.
Homogenates were centrifuged at 12K rpm for 10 minutes at 4° C., the supernatant was isolated, and protein levels were visualized by immunoblotting with antibodies. Briefly, proteins (60 μg/sample) were separated using SDS-PAGE gel (12%-15%) under denaturing conditions and electro-transferred (blotted) onto nitrocellulose (Bio-Rad) for 1 hour at 100 V. Membranes were blocked with 5% nonfat milk in Tris-buffered saline with 0.1% Tween® 20 (TBST) for 1 hour at room temperature. Primary antibodies were used at a 1:200-1:1000 concentration in TBST with 5% nonfat milk overnight at 4° C. Immunodetection of β-actin/GPDH was performed as an internal control. Dye 800/680 secondary antibodies were added at a concentration of 1:15000 for 1 hour at room temperature (LI-COR® Biosciences, NE, USA). Detection was carried out with LI-CORE® Odyssey® imaging system. Quantification of signals was carried out with the Odyssey® program.
The mechanism of action of peptidomimetics of SEQ ID NOs:1, 2 and 12 was studied in vitro in cardiomyocytes, under hypoxic conditions, by determining the expression level of the IκB gene, which is regulated by activation of TLR4, and by measuring the TLR4 mRNA levels. In addition, TLR4 expression level was measured in macrophage (derived from monocytes) treated with LPS.
IκB protein level was determined by Western blot as described in Material and Methods. The amount of IκB was normalized via-a-vis the amount of β-actin serving as the loading control (the β-actin is coded by a housekeeping gene and its level is expected to remain constant under any experimental conditions).

[6] = system: primary cardiomyocytes; experiment: CK and LDH release by primary cardiomyocytes under LPS treatment (sepsis like); type: cell-based, Rat; conditions: LPS system; 10 μM
Description: as §2, §3, §4, §5

T1 sequence (O00206 24-839): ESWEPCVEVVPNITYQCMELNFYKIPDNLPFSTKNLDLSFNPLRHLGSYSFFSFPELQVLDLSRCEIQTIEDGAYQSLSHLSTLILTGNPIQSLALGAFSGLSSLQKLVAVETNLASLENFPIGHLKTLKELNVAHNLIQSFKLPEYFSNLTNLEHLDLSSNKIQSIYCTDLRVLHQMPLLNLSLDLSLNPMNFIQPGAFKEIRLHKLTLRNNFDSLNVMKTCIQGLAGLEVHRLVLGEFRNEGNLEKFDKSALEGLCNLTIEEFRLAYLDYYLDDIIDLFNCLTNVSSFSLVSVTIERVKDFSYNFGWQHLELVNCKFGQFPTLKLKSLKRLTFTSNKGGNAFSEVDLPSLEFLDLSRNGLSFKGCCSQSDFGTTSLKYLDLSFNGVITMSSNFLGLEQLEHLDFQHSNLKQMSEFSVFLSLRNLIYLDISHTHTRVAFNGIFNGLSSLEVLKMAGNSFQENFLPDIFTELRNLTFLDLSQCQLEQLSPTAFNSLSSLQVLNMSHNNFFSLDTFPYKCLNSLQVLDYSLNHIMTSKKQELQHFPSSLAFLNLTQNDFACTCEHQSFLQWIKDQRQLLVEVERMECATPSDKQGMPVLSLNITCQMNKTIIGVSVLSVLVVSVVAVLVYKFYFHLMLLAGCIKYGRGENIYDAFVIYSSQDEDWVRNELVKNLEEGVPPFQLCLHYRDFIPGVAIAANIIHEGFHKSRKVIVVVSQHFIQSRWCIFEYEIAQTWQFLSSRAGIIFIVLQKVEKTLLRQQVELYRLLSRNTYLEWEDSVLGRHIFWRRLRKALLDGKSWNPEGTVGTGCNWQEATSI

TLR4 expression level ([3]; 30 min before LPS (100 ng/ml or 20 μg/ml), 4 hours): toward baseline levels
lowering the expression of TLR4 in the presence of LPS, compared with SEQ ID NO: 25 ([3]; low and high LPS): more effective
SMILES: CC(=O)N[C@H](C(=O)N[C@@H](Cc1ccccc1)C(=O)N[C@@H](C)C(=O)N[C@@H](CCC(=O)O)C(N)=O)C(C)C [SEQ ID NO:2, (4S,7S,10S,13S)-7-benzyl-13-carbamoyl-4-isopropyl-10-methyl-2,5,8,11-tetraoxo-3,6,9,12-tetraazahexadecan-16-oic acid] (Ac-VFAE-NH2)
TLR4 mRNA expression level [1]: significantly decreased
TLR2 mRNA expression level [2]: relatively unaffected

SMILES: CC(=O)N[C@@H](Cc1ccccc1)C(=O)N[C@@H](C)C(=O)N[C@@H](CCC(=O)O)C(N)=O [SEQ ID NO:8, (S)-4-((S)-2-((S)-2-acetamido-3-phenylpropanamido)propanamido)-5-amino-5-oxopentanoic acid] (Ac-Phe-Ala-Glu-NH2)
cell protective effect (CK and LDH release) [4]: substantial cell protective effect

SMILES: CC(=O)N[C@@H](Cc1ccccc1)C(=O)NCCC(=O)N[C@@H](CCC(=O)O)C(N)=O [SEQ ID NO:9, (S)-4-(3-((S)-2-acetamido-3-phenylpropanamido)propanamido)-5-amino-5-oxopentanoic acid]
cell protective effect (CK and LDH release) [4]: substantial cell protective effect

SMILES: CC(=O)NC(C(=O)N[C@@H](C)C(=O)N[C@@H](CCC(=O)O)C(N)=O)c1cccc2ccccc12 (stereo partly drawn) [SEQ ID NO:11, (4S)-4-((2S)-2-(2-acetamido-2-(naphthalen-1-yl)acetamido)propanamido)-5-amino-5-oxopentanoic acid]
cell protective effect (CK and LDH release) [4]: substantial cell protective effect

SMILES: CC[C@H](C)[C@H](NC(C)=O)C(=O)N[C@H](C(=O)NC(C(=O)N[C@@H](C)C(N)=O)c1cccc2ccccc12)C(C)C (stereo partly drawn) [SEQ ID NO:12, (2S,3S)-2-acetamido-N-((2S)-1-((2-(((S)-1-amino-1-oxopropan-2-yl)amino)-1-(naphthalen-1-yl)-2-oxoethyl)amino)-3-methyl-1-oxobutan-2-yl)-3-methylpentanamide]
IκB level [5]: high levels

SMILES: CC(C)[C@H](NC(=O)CN[C@@H](C)C(C)(C)C)C(=O)N[C@@H](Cc1ccccc1)C(=O)N[C@@H](C)C(N)=O [SEQ ID NO:17, (S)-N-((S)-1-(((S)-1-amino-1-oxopropan-2-yl)amino)-1-oxo-3-phenylpropan-2-yl)-2-(2-(((S)-3,3-dimethylbutan-2-yl)amino)acetamido)-3-methylbutanamide]
cellular protection / cytoprotective effect (CK and LDH release) [6]: significant cytoprotective effect

SMILES: CC(=O)N[C@H](C(=O)N[C@@H](Cc1cccc2ccccc12)C(=O)N[C@@H](C)C(=O)N[C@@H](CCC(=O)O)C(N)=O)C(C)C [SEQ ID NO:19, (4S,7S,10S,13S)-13-carbamoyl-4-isopropyl-10-methyl-7-(naphthalen-1-ylmethyl)-2,5,8,11-tetraoxo-3,6,9,12-tetraazahexadecan-16-oic acid] (Ac-V[1Nal]AE-NH2)
cellular protection / cytoprotective effect (CK and LDH release) [6]: significant cytoprotective effect
